Experimental data from PubChem BioAssay (NCI).
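Interpolation was linear, between the two tested concentrations surrounding the appropriate level; five concentrations were tested over 48 hours in 96-well plates. Here, GI50 denotes the concentration required for 50% inhibition of growth. TGI: total growth inhibition.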 Active and inactive are the calls of the source. No stated cut-off is given here; in the data, active means GI50 below about 0.43 µM; inactive means the rest.

Legend:
Assay in all cases: growth of human tumour cells (NCI), 48 h
HOP-62 NSCLC = tested on: HOP-62 NSCLC
NCI-H23 lung = tested on: NCI-H23 lung
UO-31 renal = tested on: UO-31 renal
U251 CNS = tested on: U251 CNS
OVCAR-5 ovarian = tested on: OVCAR-5 ovarian
HCT-15 colon = tested on: HCT-15 colon
SK-MEL-2 melanoma = tested on: SK-MEL-2 melanoma

SMILES	TGI (HOP-62 NSCLC) [µM]	TGI (NCI-H23 lung) [µM]	TGI (UO-31 renal) [µM]	TGI (U251 CNS) [µM]	TGI (OVCAR-5 ovarian) [µM]	TGI (HCT-15 colon) [µM]	TGI (SK-MEL-2 melanoma) [µM]	GI50 (HOP-62 NSCLC) [µM]	GI50 (NCI-H23 lung) [µM]	GI50 (UO-31 renal) [µM]	GI50 (U251 CNS) [µM]	GI50 (OVCAR-5 ovarian) [µM]	GI50 (HCT-15 colon) [µM]	GI50 (SK-MEL-2 melanoma) [µM]	outcome (HOP-62 NSCLC)	outcome (NCI-H23 lung)	outcome (UO-31 renal)	outcome (U251 CNS)	outcome (OVCAR-5 ovarian)	outcome (HCT-15 colon)
O=NN1C(c2ccccc2)CCCC1c1ccccc1 (configuration not stated)	> 100	> 100	> 100	> 100	> 100	> 100	> 100	–	–	–	–	–	–	–	–	–	–	–	–	–
COc1cc(/C(=C2/O[C@@H]([C@H]3COC(C)(C)O3)[C@H]3OC(C)(C)O[C@@H]23)c2ccc3c(c2)OCO3)cc(OC)c1OC	> 25	> 25	> 25	> 25	> 25	> 25	> 25	> 25	> 25	> 25	> 25	4.85	> 25	> 25	–	–	–	–	–	–
CCOC(=O)C1=C(c2ccccc2)C12N(Cc1ccccc1)C(=O)C2(c1ccccc1)c1ccccc1 (configuration not stated)	> 100	> 100	> 100	> 100	> 100	> 100	80	–	–	–	–	–	–	–	–	–	–	–	–	–
O=P(O)(O)CN1CCNCCN(CP(=O)(O)O)CCN(CP(=O)(O)O)CCNCC1	–	–	–	–	–	–	–	–	–	–	–	–	–	–	inactive	inactive	inactive	inactive	inactive	inactive
COc1cc(-c2nc3cc(Cl)c(Cl)cc3[nH]2)ccc1OCC(=O)N=Nc1c(O)[nH]c2ccc(Cl)cc12	1.98	3.09	> 100	0.565	–	> 100	2.93	0.455	0.489	> 100	0.203	–	> 100	1.28	–	–	–	–	–	–
C[N+]1([O-])[C@H]2CC(OC(=O)[C@H](CO)c3ccccc3)C[C@H]1[C@H]1O[C@H]12 (some centres not stated)	> 100	> 100	> 100	> 100	> 100	> 100	> 100	–	–	–	–	–	–	–	–	–	–	–	–	–
O=Cc1c(Br)[nH]c2ccccc12	> 100	> 100	> 100	> 100	> 100	> 100	> 100	–	–	–	–	–	–	–	–	–	–	–	–	–
COc1ccc([C@H]2c3cc4c(cc3OC(O)(CO)[C@H]2C(=O)O)OCO4)c(OC)c1 (some centres not stated) (tested in a mixture with another compound)	> 100	> 100	> 100	> 100	> 100	> 100	> 100	–	–	–	–	–	–	–	–	–	–	–	–	–
Cc1cc2oc3c(ccc(=O)n3C)c(=O)c2c(C)c1Cl	> 100	> 100	> 100	> 100	> 100	> 100	> 100	–	–	–	–	–	–	–	–	–	–	–	–	–
CCCCOc1ccc2c(c1)CC[C@@H]1[C@@H]2CC[C@]2(C)C(=O)N(CCCC)C(=O)C[C@@H]12	> 100	> 100	> 100	> 100	> 100	> 100	> 100	–	–	–	–	–	–	–	–	–	–	–	–	–
O=C(c1ccccc1O)c1cc(-c2ncc3c(=O)c4ccccc4oc3n2)c(-c2ccccc2O)[nH]c1=O	52.6	50.1	> 79.7	27.7	62.8	71	46.3	–	–	–	–	–	–	–	–	–	–	–	–	–
O=C(Nc1ccc(Sc2ccc(N=Nc3c(O)c(S(=O)(=O)O)cc4cc(S(=O)(=O)O)ccc34)cc2)cc1)c1ccc(N=Nc2c(O)c(S(=O)(=O)O)cc3cc(S(=O)(=O)O)ccc23)cc1	> 100	61.2	> 100	> 100	> 100	28	96.8	–	–	–	–	–	–	–	–	–	–	–	–	–
NCCS(=O)(=O)O	> 100	> 100	> 100	> 100	> 100	> 100	> 100	–	–	–	–	–	–	–	–	–	–	–	–	–
